Data taken from PubChem BioAssay AID192 (DTP/NCI, 2004).
“And” between values parts separate entries of the source, which are not always exact repeats. Identical values can stand only once. Inconclusive results and toxic doses are left out.

Test system: BDF1 mice, B16 melanoma ip, median survival T/C
Experiment: NCI In Vivo Anticancer Drug Screen. Data for tumor model B16 Melanoma (intraperitoneal) in B6D2F1 (BDF1) mice
Settings: endpoint: median survival time, higher = longer survival
Summary of the method: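 In this screen, activity was judged from survival or tumor size in treated versus vehicle-treated tumor-bearing mice, reported as T/C.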

[1] = dose: 6.25 mg/kg/injection, schedule: Q01DX009 (ip), vehicle: Klucel (hydroxypropylcellulose) (HPC)
[2] = dose: 12.5 mg/kg/injection, schedule: Q01DX009 (ip), vehicle: Klucel (hydroxypropylcellulose) (HPC)
[3] = dose: 50.0 mg/kg/injection, schedule: Q01DX009 (ip), vehicle: saline with Tween-80
[4] = dose: 100.0 mg/kg/injection, schedule: Q01DX009 (ip), vehicle: saline with Tween-80
[5] = dose: 25.0 mg/kg/injection, schedule: Q01DX009 (ip), vehicle: Klucel (hydroxypropylcellulose) (HPC)
[6] = dose: 50.0 mg/kg/injection, schedule: Q01DX009 (ip), vehicle: Klucel (hydroxypropylcellulose) (HPC)
[7] = dose: 100.0 mg/kg/injection, schedule: Q01DX009 (ip), vehicle: Klucel (hydroxypropylcellulose) (HPC)
[8] = dose: 200.0 mg/kg/injection, schedule: Q01DX009 (ip), vehicle: Klucel (hydroxypropylcellulose) (HPC)
[9] = dose: 400.0 mg/kg/injection, schedule: Q01DX009 (ip), vehicle: Klucel (hydroxypropylcellulose) (HPC)

COc1cc2c(c(OC)c1OC)-c1ccc(OC)c(=O)cc1[C@@H](NC(C)=O)CC2
T/C (dose: 0.12 mg/kg/injection, schedule: Q01DX009 (ip), vehicle: saline): 123 % of control | T/C (dose: 0.13 mg/kg/injection, schedule: Q01DX009 (ip), vehicle: saline): 120 % of control | T/C (dose: 0.25 mg/kg/injection, schedule: Q01DX009 (ip), vehicle: water): 179 % of control | T/C (dose: 0.4 mg/kg/injection, schedule: Q01DX009 (ip), vehicle: saline): 152 % of control | T/C (dose: 0.5 mg/kg/injection, schedule: Q01DX009 (ip), vehicle: saline): 113 % of control | T/C (dose: 0.5 mg/kg/injection, schedule: Q01DX009 (ip), vehicle: water): 150 % of control and 154 % of control | T/C (dose: 1.0 mg/kg/injection, schedule: Q01DX009 (ip), vehicle: water): 166 % of control | T/C (dose: 63.0 micrograms/kg/injection, schedule: Q01DX009 (ip), vehicle: saline): 121 % of control | T/C (dose: 250.0 micrograms/kg/injection, schedule: Q01DX009 (ip), vehicle: saline): 150 % of control | T/C (dose: 500.0 micrograms/kg/injection, schedule: Q01DX009 (ip), vehicle: saline): 151 % of control | T/C (dose: 1000.0 micrograms/kg/injection, schedule: Q01DX009 (ip), vehicle: saline): 155 % of control

CCOC(=O)c1ccc(=O)[nH]c1.[Ag]
T/C (dose: 3.13 mg/kg/injection, schedule: Q01DX009 (ip), vehicle: Klucel (hydroxypropylcellulose) (HPC)): 108 % of control | T/C [1]: 100 % of control | T/C [2]: 91 % of control

CC(=O)ON1C(=O)C=CC1=O
T/C (dose: 3.13 mg/kg/injection, schedule: Q01DX009 (ip), vehicle: water): 92 % of control | T/C (dose: 6.25 mg/kg/injection, schedule: Q01DX009 (ip), vehicle: water): 103 % of control | T/C (dose: 12.5 mg/kg/injection, schedule: Q01DX009 (ip), vehicle: water): 106 % of control | T/C (dose: 25.0 mg/kg/injection, schedule: Q01DX009 (ip), vehicle: water): 87 % of control

CC(=O)Nc1cc(F)c([N+](=O)[O-])cc1[N+](=O)[O-]
T/C (dose: 0.63 mg/kg/injection, schedule: Q01DX009 (ip), vehicle: saline with Tween-80): 104 % of control | T/C (dose: 1.25 mg/kg/injection, schedule: Q01DX009 (ip), vehicle: saline with Tween-80): 90 % of control | T/C (dose: 2.5 mg/kg/injection, schedule: Q01DX009 (ip), vehicle: saline with Tween-80): 104 % of control

O=[N+]([O-])c1ccc(S(=O)(=O)O)c([N+](=O)[O-])c1.[Ag]
T/C (dose: 12.5 mg/kg/injection, schedule: Q04DX003 (ip), vehicle: DMSO): 86 % of control | T/C (dose: 25.0 mg/kg/injection, schedule: Q04DX003 (ip), vehicle: DMSO): 86 % of control

O=Cc1cc([N+](=O)[O-])ccc1Cl
T/C [3]: 95 % of control | T/C [4]: 92 % of control

CC1=C(C)C(=O)O[C@@H]([C@](C)(O)[C@]2(O)CC[C@@]3(O)[C@@H]4C[C@H]5O[C@]56[C@@H](O)C=CC(=O)[C@]6(C)[C@H]4CC[C@]23C)C1
T/C (dose: 2.0 mg/kg/injection, schedule: Q01DX005 (ip), vehicle: saline + alcohol): 117 % of control | T/C (dose: 2.0 mg/kg/injection, schedule: Q01DX005 (iv), vehicle: saline + alcohol): 99 % of control | T/C (dose: 4.0 mg/kg/injection, schedule: Q01DX001 (ip), vehicle: saline + alcohol): 113 % of control | T/C (dose: 4.0 mg/kg/injection, schedule: Q01DX001 (iv), vehicle: saline + alcohol): 103 % of control | T/C (dose: 4.0 mg/kg/injection, schedule: Q01DX005 (iv), vehicle: saline + alcohol): 97 % of control | T/C (dose: 4.0 mg/kg/injection, schedule: Q01DX005 (oral), vehicle: saline + alcohol): 103 % of control | T/C (dose: 4.0 mg/kg/injection, schedule: Q01DX009 (oral), vehicle: saline + alcohol): 90 % of control | T/C (dose: 8.0 mg/kg/injection, schedule: Q01DX001 (ip), vehicle: saline + alcohol): 113 % of control | T/C (dose: 8.0 mg/kg/injection, schedule: Q01DX001 (iv), vehicle: saline + alcohol): 114 % of control | T/C (dose: 8.0 mg/kg/injection, schedule: Q01DX001 (oral), vehicle: saline + alcohol): 97 % of control | T/C (dose: 8.0 mg/kg/injection, schedule: Q01DX005 (iv), vehicle: saline + alcohol): 95 % of control | T/C (dose: 8.0 mg/kg/injection, schedule: Q01DX005 (oral), vehicle: saline + alcohol): 103 % of control | T/C (dose: 8.0 mg/kg/injection, schedule: Q01DX009 (oral), vehicle: saline + alcohol): 95 % of control | T/C (dose: 16.0 mg/kg/injection, schedule: Q01DX001 (iv), vehicle: saline + alcohol): 92 % of control | T/C (dose: 16.0 mg/kg/injection, schedule: Q01DX001 (oral), vehicle: saline + alcohol): 99 % of control | T/C (dose: 16.0 mg/kg/injection, schedule: Q01DX005 (ip), vehicle: saline + alcohol): 116 % of control | T/C (dose: 16.0 mg/kg/injection, schedule: Q01DX005 (iv), vehicle: saline + alcohol): 92 % of control | T/C (dose: 16.0 mg/kg/injection, schedule: Q01DX005 (oral), vehicle: saline + alcohol): 104 % of control | T/C (dose: 16.0 mg/kg/injection, schedule: Q01DX009 (oral), vehicle: saline + alcohol): 94 % of control | T/C (dose: 32.0 mg/kg/injection, schedule: Q01DX001 (ip), vehicle: saline + alcohol): 116 % of control | T/C (dose: 32.0 mg/kg/injection, schedule: Q01DX001 (iv), vehicle: saline + alcohol): 101 % of control | T/C (dose: 32.0 mg/kg/injection, schedule: Q01DX001 (oral), vehicle: saline + alcohol): 103 % of control | T/C (dose: 32.0 mg/kg/injection, schedule: Q01DX005 (iv), vehicle: saline + alcohol): 99 % of control | T/C (dose: 32.0 mg/kg/injection, schedule: Q01DX005 (oral), vehicle: saline + alcohol): 90 % of control | T/C (dose: 32.0 mg/kg/injection, schedule: Q01DX009 (oral), vehicle: saline + alcohol): 104 % of control | T/C (dose: 64.0 mg/kg/injection, schedule: Q01DX001 (iv), vehicle: saline + alcohol): 105 % of control | T/C (dose: 64.0 mg/kg/injection, schedule: Q01DX001 (oral), vehicle: saline + alcohol): 101 % of control | T/C (dose: 64.0 mg/kg/injection, schedule: Q01DX005 (oral), vehicle: saline + alcohol): 97 % of control | T/C (dose: 64.0 mg/kg/injection, schedule: Q01DX009 (oral), vehicle: saline + alcohol): 101 % of control | T/C (dose: 128.0 mg/kg/injection, schedule: Q01DX001 (oral), vehicle: saline + alcohol): 105 % of control

CC(=O)Nc1ccc([I+]c2ccc([N+](=O)[O-])cc2)cc1
T/C [5]: 100 % of control | T/C [6]: 104 % of control | T/C [3]: 87 % of control | T/C [7]: 90 % of control | T/C [4]: 98 % of control | T/C (dose: 200.0 mg/kg/injection, schedule: Q01DX009 (ip), vehicle: saline with Tween-80): 107 % of control

O=S(=O)(O)O
T/C [1]: 111 % of control | T/C [2]: 106 % of control | T/C [5]: 99 % of control | T/C [6]: 93 % of control

COc1ccc(C2NC(=O)c3ccccc3N2)c(OC)c1OC (centres undefined)
T/C [7]: 103 % of control | T/C [8]: 112 % of control | T/C [9]: 109 % of control

Cc1cc(=O)n2c3c(cc(C#N)cc13)OC2
T/C (dose: 100.0 mg/kg/injection, schedule: Q04DX003 (ip), vehicle: Klucel (hydroxypropylcellulose) (HPC)): 92 % of control | T/C (dose: 200.0 mg/kg/injection, schedule: Q04DX003 (ip), vehicle: Klucel (hydroxypropylcellulose) (HPC)): 95 % of control | T/C (dose: 400.0 mg/kg/injection, schedule: Q04DX003 (ip), vehicle: Klucel (hydroxypropylcellulose) (HPC)): 92 % of control

COCC1OC(OC2OCC3OC4(OCC(O)(C(C)OC)C5OCOC54)OC3C2OC)C(OC)C(O)C1OC1OC(C)C(OC)C(OC2OC(C)C3OC4(CC(O)C(OC5CC(OC6CC(C)([N+](=O)[O-])C(OC)C(C)O6)C(OC(=O)c6c(C)c(Cl)c(O)c(Cl)c6OC)C(C)O5)C(C)O4)OC3(C)C2O)C1O (centres undefined)
T/C (dose: 6.25 mg/kg/injection, schedule: Q01DX009 (ip), vehicle: saline): 97 % of control | T/C (dose: 12.5 mg/kg/injection, schedule: Q01DX009 (ip), vehicle: saline): 95 % of control | T/C (dose: 25.0 mg/kg/injection, schedule: Q01DX009 (ip), vehicle: saline): 100 % of control | T/C (dose: 50.0 mg/kg/injection, schedule: Q01DX009 (ip), vehicle: saline): 101 % of control

CCC/C=C/C(C)C
T/C [7]: 95 % of control | T/C [8]: 88 % of control | T/C [9]: 95 % of control

CCCCC(=O)OC1CC2CCC1(C)C2(C)C (centres undefined)
T/C [7]: 90 % of control
